In ChEMBL document CHEMBL3991601, “The target landscape of clinical kinase drugs” (Science, 2017) one finds Kd data, which are given here for eleven compounds.

Assay [1] has as its target T1, AarF domain-containing protein kinase 1 (Homo sapiens, UniProt Q86TW2).
T1 sequence (Q86TW2 whole entry): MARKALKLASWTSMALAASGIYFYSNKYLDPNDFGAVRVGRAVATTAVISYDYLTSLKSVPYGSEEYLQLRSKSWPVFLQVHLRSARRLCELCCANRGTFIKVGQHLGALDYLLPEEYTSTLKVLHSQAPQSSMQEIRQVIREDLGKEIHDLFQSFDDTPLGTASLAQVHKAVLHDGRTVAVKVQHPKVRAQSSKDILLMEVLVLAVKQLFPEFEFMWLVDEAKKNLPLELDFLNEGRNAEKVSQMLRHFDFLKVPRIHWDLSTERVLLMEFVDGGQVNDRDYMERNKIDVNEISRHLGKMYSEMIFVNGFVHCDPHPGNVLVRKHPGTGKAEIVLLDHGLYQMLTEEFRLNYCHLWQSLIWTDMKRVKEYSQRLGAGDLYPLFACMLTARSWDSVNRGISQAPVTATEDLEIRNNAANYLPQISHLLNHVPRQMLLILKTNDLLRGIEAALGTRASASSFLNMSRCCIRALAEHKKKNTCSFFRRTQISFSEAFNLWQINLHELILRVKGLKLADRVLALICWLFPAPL

Assay [2] deals with T2, Phosphorylase b kinase gamma catalytic chain, liver/testis isoform (Homo sapiens, UniProt P15735).
T2 sequence (P15735 whole entry): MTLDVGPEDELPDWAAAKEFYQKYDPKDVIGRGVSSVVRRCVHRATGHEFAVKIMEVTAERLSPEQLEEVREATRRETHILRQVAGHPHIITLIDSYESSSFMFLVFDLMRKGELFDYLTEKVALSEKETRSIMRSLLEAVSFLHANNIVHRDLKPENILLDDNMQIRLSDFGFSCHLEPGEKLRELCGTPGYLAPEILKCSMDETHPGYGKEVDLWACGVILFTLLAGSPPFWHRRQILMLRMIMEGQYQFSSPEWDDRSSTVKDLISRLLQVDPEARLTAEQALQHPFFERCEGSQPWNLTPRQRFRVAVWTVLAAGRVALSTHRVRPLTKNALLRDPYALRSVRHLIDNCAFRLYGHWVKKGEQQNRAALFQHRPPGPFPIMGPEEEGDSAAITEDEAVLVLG

For assay [3], the target named is Ribosomal protein S6 kinase alpha-6 (Homo sapiens, UniProt Q9UK32).
In assay [4] the target is T3, Uncharacterized protein FLJ45252 (Homo sapiens, UniProt Q6ZSR9).
T3 sequence (Q6ZSR9 whole entry): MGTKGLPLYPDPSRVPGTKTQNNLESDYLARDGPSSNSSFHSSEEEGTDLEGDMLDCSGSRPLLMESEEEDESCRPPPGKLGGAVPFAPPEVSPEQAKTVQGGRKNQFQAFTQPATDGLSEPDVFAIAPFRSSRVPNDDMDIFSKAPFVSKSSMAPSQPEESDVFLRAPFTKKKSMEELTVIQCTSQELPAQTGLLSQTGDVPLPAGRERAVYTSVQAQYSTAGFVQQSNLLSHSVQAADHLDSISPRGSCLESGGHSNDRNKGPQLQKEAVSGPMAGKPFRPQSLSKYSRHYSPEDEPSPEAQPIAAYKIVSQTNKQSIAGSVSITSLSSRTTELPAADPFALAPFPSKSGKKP
Particulars: read-out: Kd apparent; k-562, colo 205, sk-n-be(2) and mv-4-11.

Assay [5] addresses Inosine-5'-monophosphate dehydrogenase 2 (Homo sapiens, UniProt P12268).
Assay [6] has as its target T4, Beta-adrenergic receptor kinase 1 (Homo sapiens, UniProt P25098).
T4 sequence (P25098 whole entry): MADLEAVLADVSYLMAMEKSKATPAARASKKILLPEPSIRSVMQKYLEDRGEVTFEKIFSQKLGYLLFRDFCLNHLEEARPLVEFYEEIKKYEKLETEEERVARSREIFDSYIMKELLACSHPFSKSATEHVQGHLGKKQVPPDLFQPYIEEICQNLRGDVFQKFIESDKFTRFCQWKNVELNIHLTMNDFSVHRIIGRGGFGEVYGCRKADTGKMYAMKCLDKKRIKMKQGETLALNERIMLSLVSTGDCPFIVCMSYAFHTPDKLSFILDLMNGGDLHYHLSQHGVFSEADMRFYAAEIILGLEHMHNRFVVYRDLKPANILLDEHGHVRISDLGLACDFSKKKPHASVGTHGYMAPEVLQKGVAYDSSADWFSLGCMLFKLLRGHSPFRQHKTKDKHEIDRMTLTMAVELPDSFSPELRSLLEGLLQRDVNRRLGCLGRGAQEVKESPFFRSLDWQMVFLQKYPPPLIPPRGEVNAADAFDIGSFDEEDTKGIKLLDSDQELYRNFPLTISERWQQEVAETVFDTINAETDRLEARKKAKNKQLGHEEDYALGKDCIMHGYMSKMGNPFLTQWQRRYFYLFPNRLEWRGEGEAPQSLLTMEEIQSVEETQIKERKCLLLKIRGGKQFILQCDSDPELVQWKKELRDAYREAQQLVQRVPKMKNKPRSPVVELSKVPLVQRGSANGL

Assay [7] deals with Protein kinase C beta type (Homo sapiens, UniProt P05771).
Assay [8] deals with T5, Succinate--CoA ligase [ADP-forming] subunit beta, mitochondrial (Homo sapiens, UniProt Q9P2R7).
T5 sequence (Q9P2R7 whole entry): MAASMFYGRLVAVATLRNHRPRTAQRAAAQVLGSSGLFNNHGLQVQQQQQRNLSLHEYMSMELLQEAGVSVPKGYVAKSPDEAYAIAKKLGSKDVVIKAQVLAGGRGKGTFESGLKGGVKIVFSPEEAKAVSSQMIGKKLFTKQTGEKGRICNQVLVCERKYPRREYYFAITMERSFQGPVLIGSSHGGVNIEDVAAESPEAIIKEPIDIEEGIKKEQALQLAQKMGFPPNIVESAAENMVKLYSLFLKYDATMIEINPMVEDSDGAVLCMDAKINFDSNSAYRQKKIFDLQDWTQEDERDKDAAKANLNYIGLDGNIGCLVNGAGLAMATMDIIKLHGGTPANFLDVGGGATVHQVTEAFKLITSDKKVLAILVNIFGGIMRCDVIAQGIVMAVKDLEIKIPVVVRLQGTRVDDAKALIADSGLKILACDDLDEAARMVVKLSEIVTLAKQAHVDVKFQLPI

Assay [9] concerns the target RAC-gamma serine/threonine-protein kinase (Homo sapiens, UniProt Q9Y243).

Calls of active or inactive are those of the source. Rule as the data show it, for most assays here: actives have a measured Kd and inactives only a lower limit.
Also: in the data inactive means no Kd found up to 30 µM.

Chain of Protein kinase C beta type (P05771 whole entry): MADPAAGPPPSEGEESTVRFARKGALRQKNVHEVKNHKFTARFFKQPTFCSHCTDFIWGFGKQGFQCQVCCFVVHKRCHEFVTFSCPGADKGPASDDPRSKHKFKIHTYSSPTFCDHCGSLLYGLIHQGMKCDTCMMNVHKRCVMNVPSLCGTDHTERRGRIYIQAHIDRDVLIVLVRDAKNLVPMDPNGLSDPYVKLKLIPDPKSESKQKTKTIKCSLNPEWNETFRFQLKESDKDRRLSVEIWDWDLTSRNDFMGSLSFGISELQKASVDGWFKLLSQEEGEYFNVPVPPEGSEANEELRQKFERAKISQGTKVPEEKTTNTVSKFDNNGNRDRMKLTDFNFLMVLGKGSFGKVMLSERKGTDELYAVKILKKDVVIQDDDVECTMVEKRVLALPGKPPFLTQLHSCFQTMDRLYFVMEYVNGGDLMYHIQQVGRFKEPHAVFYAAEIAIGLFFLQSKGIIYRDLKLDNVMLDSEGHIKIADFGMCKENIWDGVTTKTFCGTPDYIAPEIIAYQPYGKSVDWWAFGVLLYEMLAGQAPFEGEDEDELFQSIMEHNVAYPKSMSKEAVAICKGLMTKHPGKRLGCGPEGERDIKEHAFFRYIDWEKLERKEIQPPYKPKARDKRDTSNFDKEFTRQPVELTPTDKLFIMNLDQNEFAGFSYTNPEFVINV
Chain of RAC-gamma serine/threonine-protein kinase (Q9Y243 whole entry): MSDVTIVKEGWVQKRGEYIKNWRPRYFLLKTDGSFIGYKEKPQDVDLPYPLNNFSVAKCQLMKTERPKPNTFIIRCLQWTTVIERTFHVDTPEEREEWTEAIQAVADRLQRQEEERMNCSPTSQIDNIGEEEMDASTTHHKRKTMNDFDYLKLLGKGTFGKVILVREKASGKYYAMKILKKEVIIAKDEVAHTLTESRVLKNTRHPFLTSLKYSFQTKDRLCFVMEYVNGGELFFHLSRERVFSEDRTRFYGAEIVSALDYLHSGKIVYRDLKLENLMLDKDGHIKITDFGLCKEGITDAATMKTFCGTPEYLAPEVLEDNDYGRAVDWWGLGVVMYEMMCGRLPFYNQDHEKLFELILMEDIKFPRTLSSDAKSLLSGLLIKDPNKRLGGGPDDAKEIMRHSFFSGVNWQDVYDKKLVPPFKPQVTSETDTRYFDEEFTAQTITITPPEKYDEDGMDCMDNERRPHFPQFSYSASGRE
Chain of Ribosomal protein S6 kinase alpha-6 (Q9UK32 whole entry): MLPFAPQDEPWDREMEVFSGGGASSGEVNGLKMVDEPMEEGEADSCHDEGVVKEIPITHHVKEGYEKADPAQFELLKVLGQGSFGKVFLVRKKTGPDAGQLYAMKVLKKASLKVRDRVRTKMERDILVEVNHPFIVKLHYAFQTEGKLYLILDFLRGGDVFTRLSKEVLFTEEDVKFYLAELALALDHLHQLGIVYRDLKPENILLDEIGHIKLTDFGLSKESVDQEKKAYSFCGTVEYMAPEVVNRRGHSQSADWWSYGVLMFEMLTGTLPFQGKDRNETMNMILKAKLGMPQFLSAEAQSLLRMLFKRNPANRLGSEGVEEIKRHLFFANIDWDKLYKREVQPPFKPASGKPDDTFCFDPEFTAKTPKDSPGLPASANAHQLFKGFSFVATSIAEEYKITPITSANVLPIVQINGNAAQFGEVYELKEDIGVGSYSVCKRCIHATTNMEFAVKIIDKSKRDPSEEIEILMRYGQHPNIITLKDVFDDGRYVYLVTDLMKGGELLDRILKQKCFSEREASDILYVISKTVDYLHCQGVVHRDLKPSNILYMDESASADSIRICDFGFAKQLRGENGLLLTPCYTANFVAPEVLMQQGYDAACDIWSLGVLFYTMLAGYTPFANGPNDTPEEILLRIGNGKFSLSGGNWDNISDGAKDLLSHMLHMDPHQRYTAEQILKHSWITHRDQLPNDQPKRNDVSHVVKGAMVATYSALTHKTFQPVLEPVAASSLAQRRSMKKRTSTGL

For `CC(=O)Nc1cccc(-n2c(=O)n(C3CC3)c(=O)c3c(Nc4ccc(I)cc4F)n(C)c(=O)c(C)c32)c1` [TRAMETINIB], the Kd in [1], in [2], in assay [3], in assay [4], in assay [5] and in [6] was > 30 µM (inactive) in each case. The Kd in assay [7], in assay [8] and in [9] was > 30 µM (inactive) throughout.

For `OCCn1cc(-c2cnc3nnn(Cc4ccc5ncccc5c4)c3n2)cn1` [PF-04217903], the Kd in assay [1], in assay [2], in [3], in [4], in [5] and in assay [6] was > 30 µM (inactive) each time. The Kd in assay [7], in [8] and in assay [9] was > 30 µM (inactive) each time.

Turning to `CCCS(=O)(=O)Nc1ccc(F)c(C(=O)c2c[nH]c3ncc(-c4ccc(Cl)cc4)cc23)c1F` [VEMURAFENIB], the Kd in assay [1], in assay [2], in assay [3], in [4], in assay [5] and in assay [6] was > 30 µM (inactive) each time. Further, the Kd in assay [7], in [8] and in assay [9] was > 30 µM (inactive) each time.

Consider `COCCNCc1ccc(-c2cc3nccc(Oc4ccc(NC(=S)NC(=O)Cc5ccc(F)cc5)cc4F)c3s2)nc1` [GLESATINIB], for which the Kd in [1], in assay [2], in [3], in assay [4], in [5] and in [6] was > 30 µM (inactive) each time. The Kd in [7], in assay [8] and in assay [9] was > 30 µM (inactive) throughout.

Take `Cc1cc([C@@H](C)Nc2ccccc2C(=O)O)c2nc(N3CCOCC3)cc(=O)n2c1` [AZD-6482]: the Kd in assay [1], in assay [2], in assay [3], in assay [4], in assay [5] and in assay [6] was > 30 µM (inactive) throughout. For the same compound, the Kd in assay [7], in assay [8] and in assay [9] was > 30 µM (inactive) in each case.

Consider `CNC(=O)c1ccc(-c2cnc3ncc(Cc4ccc5ncccc5c4)n3n2)cc1F` [CAPMATINIB], for which the Kd in assay [1], in [2], in assay [3], in assay [4], in [5] and in assay [6] was > 30 µM (inactive) throughout. Moreover, the Kd in assay [7], in [8] and in assay [9] was > 30 µM (inactive) each time.

With `CN1CC[C@@H](c2c(O)cc(O)c3c(=O)cc(-c4ccccc4Cl)oc23)[C@@H]1CO`, the Kd in [1], in assay [2], in assay [3], in [4], in [5] and in assay [6] was > 30 µM (inactive) throughout. The values for the Kd in assay [7], in assay [8] and in assay [9] were > 30 µM (inactive), > 30 µM (inactive) and 5.92 µM, respectively.

Regarding `N[C@@H]1CCCN(c2c(/C=C3\SC(=O)NC3=O)cccc2-c2ccccc2)C1`, the Kd in assay [1], in [2], in assay [3], in [4], in [5] and in [6] was > 30 µM (inactive) each time. The Kd in [7], in [8] and in assay [9] was > 30 µM (inactive) in each case.

As to `CCN1CCN(Cc2ccc(-c3cc4c(N[C@H](C)c5ccccc5)ncnc4[nH]3)cc2)CC1` [AEE-788], the Kd in assay [1], in [2], in assay [3], in assay [4], in assay [5] and in [6] was > 30 µM (inactive) each time. Moreover, the Kd in assay [7], in [8] and in assay [9] was > 30 µM (inactive) each time.

As to `O=C(Nc1ccc(-c2ccnc(Nc3ccc(N4CCOCC4)cc3)n2)cc1)C1CCCN1` (centres undefined) [XL-019], the Kd in assay [1] was 0.202 µM (active); in assay [2], > 30 µM (inactive); in assay [3], > 30 µM (inactive); in [4], 0.007 µM (active); in assay [5] it was > 30 µM (inactive); in assay [6], > 30 µM (inactive). In addition, the Kd in assay [7], in assay [8] and in [9] was > 30 µM (inactive) each time.

On to `CN1CCC(COc2cnc(-c3cccc(Cn4nc(-c5cccc(C#N)c5)ccc4=O)c3)nc2)CC1` [TEPOTINIB], for which the Kd in [1], in [2], in assay [3], in assay [4], in assay [5] and in assay [6] was > 30 µM (inactive) throughout. The Kd in [7], in assay [8] and in assay [9] was > 30 µM (inactive) each time.
